According to PubChem BioAssay AID256 (DTP/NCI, 2004):
Where “and” joins values, the source holds several entries; their conditions need not be identical. Identical values can stand only once. Toxic doses and inconclusive results are not listed.

Tested on: CD2F1 mice, L1210 leukemia ip, survival T/C
Assay: NCI In Vivo Anticancer Drug Screen. Data for tumor model L1210 Leukemia (intraperitoneal) in CD2F1 (CDF1) mice
Conditions: higher = longer survival
How it was run: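 Vehicle-treated tumor-bearing mice served as controls (C) for compound-treated mice (T). Reported figure is T divided by C.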

[1] = endpoint: mean survival time, dose: 100.0 mg/kg/injection, schedule: Q04DX002 (ip), vehicle: saline with Tween-80
[2] = endpoint: mean survival time, dose: 200.0 mg/kg/injection, schedule: Q04DX002 (ip), vehicle: saline with Tween-80
[3] = endpoint: mean survival time, dose: 400.0 mg/kg/injection, schedule: Q04DX002 (ip), vehicle: saline with Tween-80
[4] = endpoint: mean survival time, dose: 100.0 mg/kg/injection, schedule: Q04DX003 (ip), vehicle: saline with Tween-80
[5] = endpoint: mean survival time, dose: 200.0 mg/kg/injection, schedule: Q04DX003 (ip), vehicle: saline with Tween-80
[6] = endpoint: mean survival time, dose: 400.0 mg/kg/injection, schedule: Q04DX003 (ip), vehicle: saline with Tween-80
[7] = endpoint: mean survival time, dose: 100.0 mg/kg/injection, schedule: Q04DX003 (ip), vehicle: saline
[8] = endpoint: mean survival time, dose: 100.0 mg/kg/injection, schedule: Q01DX001 (ip), vehicle: saline with Tween-80
[9] = endpoint: mean survival time, dose: 200.0 mg/kg/injection, schedule: Q01DX001 (ip), vehicle: saline with Tween-80
[10] = endpoint: mean survival time, dose: 400.0 mg/kg/injection, schedule: Q01DX001 (ip), vehicle: saline with Tween-80
[11] = endpoint: mean survival time, dose: 100.0 mg/kg/injection, schedule: Q04DX003 (ip), vehicle: Klucel (hydroxypropylcellulose) (HPC)
[12] = endpoint: mean survival time, dose: 200.0 mg/kg/injection, schedule: Q04DX003 (ip), vehicle: Klucel (hydroxypropylcellulose) (HPC)
[13] = endpoint: mean survival time, dose: 400.0 mg/kg/injection, schedule: Q04DX003 (ip), vehicle: Klucel (hydroxypropylcellulose) (HPC)

In the case of `O=C(c1ccccc1)c1cccs1`, the T/C (endpoint: mean survival time, dose: 22.0 mg/kg/injection, schedule: Q01DX009 (ip), vehicle: saline with Tween-80) was 96 % of control, the T/C (endpoint: mean survival time, dose: 22.0 mg/kg/injection, schedule: Q04DX003 (ip), vehicle: saline with Tween-80) was 95 % of control and the T/C (endpoint: mean survival time, dose: 44.0 mg/kg/injection, schedule: Q01DX009 (ip), vehicle: saline with Tween-80) was 96 % of control. The T/C (endpoint: mean survival time, dose: 44.0 mg/kg/injection, schedule: Q04DX003 (ip), vehicle: saline with Tween-80) was 101 % of control, the T/C (endpoint: mean survival time, dose: 88.0 mg/kg/injection, schedule: Q01DX009 (ip), vehicle: saline with Tween-80) was 93 % of control and the T/C (endpoint: mean survival time, dose: 88.0 mg/kg/injection, schedule: Q04DX003 (ip), vehicle: saline with Tween-80) was 104 % of control.
`Cc1ccc(/C(O)=C2/CC(C)(C)c3ccccc3C2=O)cc1` was tested, and the T/C (endpoint: mean survival time, dose: 100.0 mg/kg/injection, schedule: Q04DX003 (ip), vehicle: acetone) was 92 % of control, the T/C (endpoint: mean survival time, dose: 200.0 mg/kg/injection, schedule: Q04DX003 (ip), vehicle: acetone) was 92 % of control and the T/C (endpoint: mean survival time, dose: 400.0 mg/kg/injection, schedule: Q04DX003 (ip), vehicle: acetone) was 88 % of control.
`COc1cc(/C=C(\C#N)c2ccc([N+](=O)[O-])cc2)ccc1O` was tested, and the T/C [1] was 100 % of control, the T/C [2] was 87 % of control and the T/C [3] was 91 % of control.
With `CC(=O)C12CC3CC1C2C3` the T/C (endpoint: mean survival time, dose: 75.0 mg/kg/injection, schedule: Q01DX001 (ip), vehicle: saline) was 101 % of control, the T/C (endpoint: mean survival time, dose: 150.0 mg/kg/injection, schedule: Q01DX001 (ip), vehicle: saline) was 98 % of control and the T/C (endpoint: mean survival time, dose: 300.0 mg/kg/injection, schedule: Q01DX001 (ip), vehicle: saline) was 93 % of control.
In the case of `CC(C)CCOC(=O)CN(CC(=O)OCCC(C)C)c1ccccc1`, the T/C (endpoint: mean survival time, dose: 100.0 mg/kg/injection, schedule: Q01DX009 (ip), vehicle: saline with Tween-80) was 89 % of control, the T/C [4] was 95 % of control and the T/C (endpoint: mean survival time, dose: 200.0 mg/kg/injection, schedule: Q01DX009 (ip), vehicle: saline with Tween-80) was 91 % of control. For the same compound, the T/C [5] was 97 % of control, the T/C (endpoint: mean survival time, dose: 400.0 mg/kg/injection, schedule: Q01DX009 (ip), vehicle: saline with Tween-80) was 97 % of control and the T/C [6] was 105 % of control.
For `Brc1nc(-c2ccccc2)cc(-c2ccccc2)c1-c1ccccc1`, the T/C [1] was 90 % of control, the T/C [2] was 90 % of control and the T/C [3] was 97 % of control.
`CC/C(C)=N\O` was tested, and the T/C (endpoint: mean survival time, dose: 100.0 mg/kg/injection, schedule: Q01DX009 (ip), vehicle: saline) was 97 % of control, the T/C (endpoint: mean survival time, dose: 200.0 mg/kg/injection, schedule: Q01DX009 (ip), vehicle: saline) was 111 % of control and the T/C (endpoint: mean survival time, dose: 400.0 mg/kg/injection, schedule: Q01DX009 (ip), vehicle: saline) was 97 % of control.
In the case of `CCC(CC)C(=O)OCCCCOC(=O)C(CC)CC`, the T/C [7] was 93 % of control, the T/C (endpoint: mean survival time, dose: 200.0 mg/kg/injection, schedule: Q04DX003 (ip), vehicle: saline) was 107 % of control and the T/C (endpoint: mean survival time, dose: 400.0 mg/kg/injection, schedule: Q04DX003 (ip), vehicle: saline) was 107 % of control.
`CCOC(=O)/C=C/c1ccc2c(c1)OCO2` was tested, and the T/C [4] was 97 % of control, the T/C [5] was 94 % of control and the T/C [6] was 103 % of control.
In the case of `CC(C(=O)c1ccccc1)N(C)C` (configuration not stated), the T/C [7] was 100 % of control.
In the case of `Cc1c(C)c(NC(=O)/C=C/C(=O)O)c(C)c(C)c1NC(=O)/C=C\C(=O)O`, the T/C (endpoint: mean survival time, dose: 100.0 mg/kg/injection, schedule: Q01DX001 (ip), vehicle: Klucel (hydroxypropylcellulose) (HPC)) was 101 % of control, the T/C (endpoint: mean survival time, dose: 200.0 mg/kg/injection, schedule: Q01DX001 (ip), vehicle: Klucel (hydroxypropylcellulose) (HPC)) was 96 % of control and the T/C (endpoint: mean survival time, dose: 400.0 mg/kg/injection, schedule: Q01DX001 (ip), vehicle: Klucel (hydroxypropylcellulose) (HPC)) was 98 % of control.
For `CC(C)CCCC(C)[C@@H]1CCC2[C@H]3CCC4(C)CC5=C(C[C@@]4(C)C3CC[C@]21C)C(=O)CC1C2CCCCC2CCN51` (some centres not stated), the T/C [8] was 102 % of control, the T/C [9] was 90 % of control and the T/C [10] was 90 % of control.
With `CC(C)=NNS(=O)(=O)c1ccccc1` the T/C (endpoint: mean survival time, dose: 12.5 mg/kg/injection, schedule: Q01DX005 (ip), vehicle: Klucel (hydroxypropylcellulose) (HPC)) was 88 % of control, the T/C (endpoint: mean survival time, dose: 25.0 mg/kg/injection, schedule: Q01DX005 (ip), vehicle: Klucel (hydroxypropylcellulose) (HPC)) was 96 % of control and the T/C (endpoint: mean survival time, dose: 50.0 mg/kg/injection, schedule: Q01DX005 (ip), vehicle: Klucel (hydroxypropylcellulose) (HPC)) was 96 % of control. For the same compound, the T/C (endpoint: mean survival time, dose: 100.0 mg/kg/injection, schedule: Q01DX005 (ip), vehicle: Klucel (hydroxypropylcellulose) (HPC)) was 93 % of control.
For `c1ccc2[nH]c(CN3CCCCC3)cc2c1`, the T/C (endpoint: mean survival time, dose: 12.5 mg/kg/injection, schedule: Q01DX009 (ip), vehicle: saline with Tween-80) was 106 % of control, the T/C (endpoint: mean survival time, dose: 25.0 mg/kg/injection, schedule: Q01DX009 (ip), vehicle: saline with Tween-80) was 100 % of control and the T/C (endpoint: mean survival time, dose: 50.0 mg/kg/injection, schedule: Q01DX009 (ip), vehicle: saline with Tween-80) was 90 % of control.
For `O=C(C(Oc1ccc(Cl)cc1)Oc1ccc(Cl)cc1)N(O)c1ccccc1OCc1ccccc1`, the T/C [4] was 102 % of control, the T/C [5] was 96 % of control and the T/C [6] was 94 % of control.
`CC(CCC(=O)c1ccccc1)c1ccc2ccccc2c1` (configuration not stated) was tested, and the T/C (endpoint: mean survival time, dose: 100.0 mg/kg/injection, schedule: Q01DX009 (ip), vehicle: Klucel (hydroxypropylcellulose) (HPC)) was 92 % of control, the T/C [11] was 106 % of control and the T/C (endpoint: mean survival time, dose: 200.0 mg/kg/injection, schedule: Q01DX009 (ip), vehicle: Klucel (hydroxypropylcellulose) (HPC)) was 100 % of control. For the same compound, the T/C [12] was 104 % of control, the T/C (endpoint: mean survival time, dose: 400.0 mg/kg/injection, schedule: Q01DX009 (ip), vehicle: Klucel (hydroxypropylcellulose) (HPC)) was 96 % of control and the T/C [13] was 97 % of control.
`c1cncc(-c2nc3ccccc3s2)c1` was tested, and the T/C [11] was 103 % of control, the T/C [12] was 100 % of control and the T/C [13] was 100 % of control.
`Cc1ccc(N2C(=O)CSC2=S)c(Br)c1` was tested, and the T/C [8] was 101 % of control, the T/C [9] was 101 % of control and the T/C [10] was 106 % of control.
In the case of `c1ccc2c(c1)OB(C1CCCC1)O2`, the T/C (endpoint: mean survival time, dose: 100.0 mg/kg/injection, schedule: Q01DX009 (ip), vehicle: other) was 93 % of control, the T/C (endpoint: mean survival time, dose: 200.0 mg/kg/injection, schedule: Q01DX009 (ip), vehicle: other) was 105 % of control and the T/C (endpoint: mean survival time, dose: 400.0 mg/kg/injection, schedule: Q01DX009 (ip), vehicle: other) was 109 % of control.
For `CCC1CCCCN1C` (configuration not stated), the T/C [4] was 90 % of control.
For `Nc1ncn(C2CC(O)C(CO)O2)c(=O)n1` (configuration not stated), the T/C (endpoint: mean survival time, dose: 0.12 mg/kg/injection, schedule: Q01DX009 (ip), vehicle: saline) was 160 % of control and 175 % of control, the T/C (endpoint: mean survival time, dose: 0.25 mg/kg/injection, schedule: Q01DX009 (ip), vehicle: Klucel (hydroxypropylcellulose) (HPC)) was 195 % of control and the T/C (endpoint: mean survival time, dose: 0.25 mg/kg/injection, schedule: Q01DX009 (ip), vehicle: saline) was 193 % of control and 221 % of control. The T/C (endpoint: mean survival time, dose: 0.5 mg/kg/injection, schedule: Q01DX009 (ip), vehicle: Klucel (hydroxypropylcellulose) (HPC)) was 219 % of control, the T/C (endpoint: mean survival time, dose: 0.5 mg/kg/injection, schedule: Q01DX009 (ip), vehicle: saline) was 229 % of control and 258 % of control and the T/C (endpoint: mean survival time, dose: 1.0 mg/kg/injection, schedule: Q01DX009 (ip), vehicle: Klucel (hydroxypropylcellulose) (HPC)) was 227 % of control. For the same compound, the T/C (endpoint: mean survival time, dose: 1.0 mg/kg/injection, schedule: Q01DX009 (ip), vehicle: saline) was 258 % of control and 296 % of control, the T/C (endpoint: mean survival time, dose: 4.0 mg/kg/injection, schedule: Q01DX009 (ip), vehicle: Klucel (hydroxypropylcellulose) (HPC)) was 113 % of control and the T/C (endpoint: mean survival time, dose: 4.0 mg/kg/injection, schedule: Q01DX009 (ip), vehicle: saline) was 121 % of control. The T/C (endpoint: mean survival time, dose: 8.0 mg/kg/injection, schedule: Q01DX009 (ip), vehicle: Klucel (hydroxypropylcellulose) (HPC)) was 98 % of control, the T/C (endpoint: median survival time, dose: 0.25 mg/kg/injection, schedule: Q01DX009 (ip), vehicle: saline) was 211 % of control and the T/C (endpoint: median survival time, dose: 0.5 mg/kg/injection, schedule: Q01DX009 (ip), vehicle: saline) was 247 % of control. The T/C (endpoint: median survival time, dose: 1.0 mg/kg/injection, schedule: Q01DX009 (ip), vehicle: saline) was 297 % of control and the T/C (endpoint: median survival time, dose: 8.0 mg/kg/injection, schedule: Q01DX009 (ip), vehicle: saline) was 117 % of control.
In the case of `CC(=O)Oc1ccc(N2C(=O)C3C(C2=O)C2c4ccccc4C3C3CCCCN32)cc1` (configuration not stated) (tested in a mixture with another compound), the T/C (endpoint: mean survival time, dose: 25.0 mg/kg/injection, schedule: Q01DX009 (ip), vehicle: water) was 101 % of control, the T/C (endpoint: mean survival time, dose: 50.0 mg/kg/injection, schedule: Q01DX009 (ip), vehicle: water) was 95 % of control and the T/C (endpoint: mean survival time, dose: 100.0 mg/kg/injection, schedule: Q01DX009 (ip), vehicle: water) was 95 % of control. The T/C (endpoint: mean survival time, dose: 200.0 mg/kg/injection, schedule: Q01DX009 (ip), vehicle: water) was 90 % of control.
For `ClSc1c(Cl)c(Cl)c(Cl)c(Cl)c1Cl`, the T/C [4] was 95 % of control, the T/C [5] was 101 % of control and the T/C [6] was 95 % of control.
